Measurements published in article PMC8744835, “Sterically Hindered Quaternary Phosphonium Salts (QPSs): Antimicrobial Activity and Hemolytic and Cytotoxic Properties” (International Journal of Molecular Sciences, 2021).

Legend:
[1] = test system: human erythrocytes; assay: Hemolytic activity; assay type: cell-based; conditions: red blood cells
From the text: An important characteristic when assessing the biological activity of new chemical compounds is their cytotoxic effect on eukaryotic cells. The ability of an investigated compound to cause the destruction of human erythrocytes illustrates its toxic effect on the internal environment. The hemolysis assay is a simple screening test that can help in the study of cytotoxicity in more complex models. Cell lines obtained from various human organs and tissues that allow for adequate estimation of the effects of new potential drugs on cell metabolism can serve as experimental models.
The hemolytic activity of the QPSs was estimated by comparing the optical density of a solution containing the test compound with that of blood at 100% hemolysis. The experiments were carried out as previously described.

[2] = test system: Chang liver cell line; assay: Cytotoxicity assay (Cytell Cell Imaging, DAPI/propidium iodide); assay type: cell-based, human; conditions: for IC50: Homo sapiens, Chang liver, read-out: IC50 (concentration that causes the death of 50% of the cells), Chang liver cells
[3] = test system: Staphylococcus aureus ATCC 6538P FDA 209P; assay: Antimicrobial activity, serial dilution technique in Mueller–Hinton Broth 2; assay type: cell-based; conditions: average of three ± SD, - means non-active
Method in brief: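 Antimicrobial activity against Staphylococcus aureus ATCC 6538P FDA 209P was measured by serial dilution in Mueller–Hinton Broth 2 at a bacterial load of 3.0 × 10^5 cfu/mL. Cultures were incubated at 37 °C, growth was recorded every 24 h for 5 days, and the experiment was done three times.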

Row | SMILES | HC50 (concentration that causes 50% hemolysis of erythrocytes) [1] [µg/mL] | IC50 [2] [µg/mL] | MIC ([3]; Staphylococcus aureus, Sa, read-out: Minimum Inhibitory Concentration (MIC), Sa) [µg/mL] | Minimum Inhibitory Concentration (MIC), Sa [3] [µg/mL] | IC50 (concentration that causes the death of 50% of the cells) ([2]; Chang liver cells) [µg/mL]
1 | CC(C)(C)[P+](C)(C(C)(C)C)C(C)(C)C [Compound 1a] | > 125 | > 100 | – | – | –
2 | CC[P+](C(C)(C)C)(C(C)(C)C)C(C)(C)C [Compound 2a] | > 125 | > 100 | – | – | –
3 | CCC[P+](C(C)(C)C)(C(C)(C)C)C(C)(C)C [Compound 3a] | > 125 | > 100 | – | – | –
4 | CCCC[P+](C(C)(C)C)(C(C)(C)C)C(C)(C)C [Compound 4a] | > 125 | > 100 | – | – | –
5 | CCCCC[P+](C(C)(C)C)(C(C)(C)C)C(C)(C)C [Compound 5b] | > 125 | > 100 | – | – | –
6 | CCCCCC[P+](C(C)(C)C)(C(C)(C)C)C(C)(C)C [Compound 6a] | > 125 | > 100 | 125 ± 11 | – | –
7 | CCCCCC[P+](C(C)(C)C)(C(C)(C)C)C(C)(C)C [Compound 6b] | > 125 | – | – | 250 ± 19 | > 100
